This note sets out measurements from patent US20170152239A1, “BENZAMIDE AND HETEROBENZAMIDE COMPOUNDS” (PFIZER INC., priority 2012, published 2017).

Some results are limits rather than exact numbers.

In general, IC50 refers to the concentration that gives 50% inhibition.

WT EZH2 (EZH2 4 protein complex: EZH2, EED, SUZ12, RbAp48), sequence (Q15910 whole entry): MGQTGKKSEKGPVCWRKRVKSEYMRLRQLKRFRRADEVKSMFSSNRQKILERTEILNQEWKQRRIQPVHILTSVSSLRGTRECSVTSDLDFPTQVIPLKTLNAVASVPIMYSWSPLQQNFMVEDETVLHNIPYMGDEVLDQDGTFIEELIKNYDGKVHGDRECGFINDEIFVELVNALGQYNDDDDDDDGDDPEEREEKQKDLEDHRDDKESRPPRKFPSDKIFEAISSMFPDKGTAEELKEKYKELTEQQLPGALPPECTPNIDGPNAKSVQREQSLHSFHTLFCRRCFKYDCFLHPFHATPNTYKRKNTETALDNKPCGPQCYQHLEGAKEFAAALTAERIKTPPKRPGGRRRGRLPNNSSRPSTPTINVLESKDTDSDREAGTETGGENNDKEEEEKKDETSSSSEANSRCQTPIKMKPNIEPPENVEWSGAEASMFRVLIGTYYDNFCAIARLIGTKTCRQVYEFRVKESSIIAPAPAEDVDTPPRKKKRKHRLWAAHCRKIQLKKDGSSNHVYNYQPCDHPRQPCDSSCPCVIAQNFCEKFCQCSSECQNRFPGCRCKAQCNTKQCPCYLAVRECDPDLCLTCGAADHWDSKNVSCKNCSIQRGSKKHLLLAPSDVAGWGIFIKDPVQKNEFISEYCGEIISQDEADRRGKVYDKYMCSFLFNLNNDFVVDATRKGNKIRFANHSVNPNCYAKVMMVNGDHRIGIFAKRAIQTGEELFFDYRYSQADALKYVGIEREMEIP
WT EZH2 (EZH2 4 protein complex: EZH2, EED, SUZ12, RbAp48), sequence (O75530 whole entry partner): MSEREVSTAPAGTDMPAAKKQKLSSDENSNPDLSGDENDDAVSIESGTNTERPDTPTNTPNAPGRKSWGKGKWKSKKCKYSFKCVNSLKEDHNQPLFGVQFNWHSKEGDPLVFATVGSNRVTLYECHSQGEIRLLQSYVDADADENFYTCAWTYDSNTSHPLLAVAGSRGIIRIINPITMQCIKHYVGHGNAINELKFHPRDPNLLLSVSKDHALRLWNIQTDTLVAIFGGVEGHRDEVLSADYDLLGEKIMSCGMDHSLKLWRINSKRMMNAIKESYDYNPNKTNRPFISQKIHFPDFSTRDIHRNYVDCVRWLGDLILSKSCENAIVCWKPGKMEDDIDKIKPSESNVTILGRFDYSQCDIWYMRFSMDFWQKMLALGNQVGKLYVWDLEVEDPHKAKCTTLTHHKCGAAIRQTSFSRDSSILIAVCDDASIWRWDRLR
WT EZH2 (EZH2 4 protein complex: EZH2, EED, SUZ12, RbAp48), sequence (Q15022 whole entry partner): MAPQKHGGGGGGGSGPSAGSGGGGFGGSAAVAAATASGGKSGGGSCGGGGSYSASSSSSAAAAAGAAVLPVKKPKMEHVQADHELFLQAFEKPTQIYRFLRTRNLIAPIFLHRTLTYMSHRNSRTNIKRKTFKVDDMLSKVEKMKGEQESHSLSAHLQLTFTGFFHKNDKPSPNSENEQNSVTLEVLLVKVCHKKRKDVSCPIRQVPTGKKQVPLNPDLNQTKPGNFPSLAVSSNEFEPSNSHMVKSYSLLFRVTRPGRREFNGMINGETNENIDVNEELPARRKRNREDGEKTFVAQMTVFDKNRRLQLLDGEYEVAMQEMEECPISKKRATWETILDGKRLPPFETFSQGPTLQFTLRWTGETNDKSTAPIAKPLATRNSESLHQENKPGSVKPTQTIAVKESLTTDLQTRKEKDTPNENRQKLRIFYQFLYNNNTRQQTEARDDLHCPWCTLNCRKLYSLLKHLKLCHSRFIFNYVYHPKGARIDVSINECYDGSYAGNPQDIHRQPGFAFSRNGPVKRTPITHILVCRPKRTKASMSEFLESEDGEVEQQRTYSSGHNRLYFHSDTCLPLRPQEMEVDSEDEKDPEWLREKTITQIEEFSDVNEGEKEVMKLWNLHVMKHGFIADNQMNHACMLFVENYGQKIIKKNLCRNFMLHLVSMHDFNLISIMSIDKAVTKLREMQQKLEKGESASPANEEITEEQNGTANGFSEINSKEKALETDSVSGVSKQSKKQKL
WT EZH2 (EZH2 4 protein complex: EZH2, EED, SUZ12, RbAp48), sequence (Q09028 whole entry partner): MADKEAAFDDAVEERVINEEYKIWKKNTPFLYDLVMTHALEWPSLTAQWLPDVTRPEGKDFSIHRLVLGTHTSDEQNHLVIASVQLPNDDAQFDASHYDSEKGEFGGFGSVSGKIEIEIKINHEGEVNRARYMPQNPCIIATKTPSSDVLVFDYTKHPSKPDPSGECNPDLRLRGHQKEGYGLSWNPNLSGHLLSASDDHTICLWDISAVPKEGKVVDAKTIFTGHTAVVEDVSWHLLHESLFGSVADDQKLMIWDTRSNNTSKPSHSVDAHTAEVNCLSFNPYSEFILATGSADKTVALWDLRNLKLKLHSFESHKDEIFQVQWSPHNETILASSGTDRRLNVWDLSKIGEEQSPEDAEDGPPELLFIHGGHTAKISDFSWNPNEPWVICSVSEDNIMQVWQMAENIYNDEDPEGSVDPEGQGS

This assay addresses WT EZH2 (EZH2 4 protein complex: EZH2, EED, SUZ12, RbAp48) (Homo sapiens, UniProt O75530+Q09028+Q15022+Q15910). Description: WT EZH2 nucleosome assay. It counts as biochemical. To be noted: nucleosome assay, 5 nM EZH2 4-protein complex, 1.5 μM SAM; read-out: WT EZH2 IC50. How it is done: Nucleosome Assay Protocol:
A. Compound preparation • 1. Prepare 10 mM stock solutions in 100% DMSO from solid material • 2. Serial dilute 10 mM compound stocks either 2 or 3-fold in 100% DMSO to generate compounds for 11 point dose response
B. Reagent preparation • 1. Prepare 1× assay buffer containing 100 mM Tris pH 8.5, 4 mM DTT and 0.01% Tween-20 • 2. Dilute purified HeLA oligonucleosomes and recombinant histone H1 (New England Biolabs) in assay buffer to 1.67×. • 3. Dilute EZH2 4 protein complex (EZH2, EED, SUZ12, RbAp48) to 3.5× in assay buffer • 4. Prepare 10×^3H SAM solution in assay buffer using 0.94 μCi/well of radioactive SAM (Perkin Elmer) and sufficient non-labeled SAM (Sigma) for 1.5 μM final concentration. • 5. Dilute TCA to 20% in DI water
C. Enzyme reaction • 1. Final reaction conditions are 5 nM EZH2 4-protein complex, 1.5 μM SAM, 25 μg/mL oligonucleosomes, 50 nM rH1 in a 50 μl reaction volume. • 2. Add 1 μl of diluted compound to the assay plate (96-well V-bottom polypropylene plates) or 1 μl of DMSO for control wells. • 3. Add 30 μl of nucleosomes to the assay plate • 4. Add 14 μl of EZH2 4 protein complex to the assay plate • 5. Add 5 μl of ^3H SAM to start the reaction. • 6. Stop the reaction after 60 minutes with the addition of 100 μl of 20% TCA • 7. Transfer 150 μl of quenched reaction into a prepared filterplate (Millipore #MSIPN4B10) • 8. Apply vacuum to the filterplate to filter the reaction mix through the membrane. • 9. Wash the filterplate with 8×200 μl of PBS, blot dry and dry in an oven for 30 minutes • 10. Add 50 μl of microscint-20 scintillation fluid (Perkin Elmer) to each well, wait 30 minutes and count on a liquid scintillation counter.
D. Data analysis • 1. IC50 values were determined by fitting the data to a 4-parameter IC50 equation using proprietary curve fitting software.
Wild type (WT) EZH2% Effect at 20 μM and IC50 values (μM) generated in WT EZH2 or EZH2PRC2 mutant Y641N nucleosome assays are provided in Table 3 below. A blank entry in the table indicates the data was not generated in that assay.
Take `Cc1cc(C)c(CNC(=O)c2cc(Cl)cc(-n3c(C)cnc3C)c2C)c(=O)[nH]1` [Example 28, 5-chloro-3-(2,5-dimethyl-1H-imidazol-1-yl)-N-[(4,6-dimethyl-2-oxo-1,2-dihydropyridin-3-yl)methyl]-2-methylbenzamide]: the 50% inhibitory concentration (IC50) turned out to be 0.26 µM.
Consider `Cc1cc(C)c(CNC(=O)c2nc(N3[C@@H]4CC[C@H]3COC4)nc(N3CCC[C@@H]3C)c2C)c(=O)[nH]1` [Example 55, N-[(4,6-dimethyl-2-oxo-1,2-dihydropyridin-3-yl)methyl]-5-methyl-6-[(2S)-2 - methylpyrrolidin-1-yl]-2-[(1R,5S)-3-oxa-8-azabicyclo[3.2.1]oct-8-yl]pyrimidine-4-carboxamide], for which the half-maximal inhibitory concentration (IC50) stood at 2.89 µM.
As for `Cc1cc(C)c(CNC(=O)c2cc(Cl)cc(-n3nnnc3C)c2C)c(=O)[nH]1` [Example 52, 5-chloro-N-[(4,6-dimethyl-2-oxo-1,2-dihydropyridin-3-yl)methyl]-2-methyl-3-(5-methyl-1H-tetrazol-1-yl)benzamide], the IC50 worked out at 2.46 µM.
For `Cc1cc(C)c(CNC(=O)c2cccc(-c3c(C)cnn3C)c2C)c(=O)[nH]1` [Example 1, N-[(4,6-dimethyl-2-oxo-1,2-dihydropyridin-3-yl)methyl]-3-(1,4-dimethyl-1H-pyrazol-5-yl)-2-methylbenzamide], the IC50 worked out at 0.47 µM.
Consider `Cc1cc(C)c(CNC(=O)c2nc(OCc3cncnc3)nc(-c3ccnn3C)c2C)c(=O)[nH]1` [Example 74, N-[(4,6-dimethyl-2-oxo-1,2-dihydropyridin-3-yl)methyl]-5-methyl-6-(1-methyl-1H-pyrazol-5-yl)-2-(pyrimidin-5-ylmethoxy)pyri-midine-4-carboxamide], for which the IC50 was 6.61 µM.
To `Cc1cc(C)c(CNC(=O)c2nc(OCCN3CCC(F)(F)CC3)nc(-c3ccnn3C)c2C)c(=O)[nH]1` [Example 98, 2-[2-(4,4-difluoropiperi-din-1-yl)ethoxy]-N-[(4,6-dimethyl-2-oxo-1,2-dihydropyridin-3-yl)methyl]-5-methyl-6-(1-methyl-1H-pyrazol-5-yl)pyrimidine-4-carboxamide] belongs 17.3 µM; to `CCCc1cc(C)[nH]c(=O)c1CNC(=O)c1nc(C2CC2)nc(-c2ccnn2C)c1C` [Example 118, 2-cyclopropyl-5-methyl-N-[(6-methyl-2-oxo-4-propyl-1,2-dihydropyridin-3-yl)methyl]-6-(1-methyl-1H-pyrazol-5-yl)pyrimidine-4-carboxamide], 31.8 µM; to `Cc1cc(C)c(CNC(=O)c2nc(OCCN3CCC(F)(F)C3)nc(-c3ccnn3C)c2C)c(=O)[nH]1` [Example 105, 2-[2-(3,3-difluoropyrroli-din-1-yl)ethoxy]-N-[(4,6-dimethyl-2-oxo-1,2-dihydropyridin-3-yl)methyl]-5-methyl-6-(1-methyl-1H-pyrazol-5-yl)pyrimidine-4-carboxamide], 19.8 µM.
As for `COc1ncc(-c2cc(C(=O)NCc3c(C)cc(C)[nH]c3=O)c(C)c(-c3c(C)cnn3C)c2)cn1` [Example 25, N-[(4,6-dimethyl-2-oxo-1,2-dihydropyridin-3-yl)methyl]-3-(1,4-dimethyl-1H-pyrazol-5-yl)-5-(2-methoxypyrimidin-5-yl)-2-methylbenzamide], the concentration for half-maximal inhibition (IC50) amounted to 0.16 µM.
To `Cc1cc(C)c(CNC(=O)c2cccc(-c3c(F)cnn3C)c2C)c(=O)[nH]1` [Example 11, N-[(4,6-dimethyl-2-oxo-1,2-dihydropyridin-3-yl)methyl]-3-(4-fluoro-1-methyl-1H-pyrazol-5-yl)-2-methylbenzamide] belongs 0.36 µM; to `Cc1ccc(CNC(=O)c2nc(C3CC3)nc(-c3ccnn3C)c2C)c(=O)[nH]1` [Example 141, 2-cyclopropyl-5-methyl-N-[(6-methyl-2-oxo-1,2-dihydropyridin-3-yl)methyl]-6-(1-methyl-1H-pyrazol-5-yl)pyrimidine-4-carboxamide], greater than 200 µM; to `Cc1cc(C)c(CNC(=O)c2cc(-c3cnn(C)c3)cc(-c3ccnn3C)c2C)c(=O)[nH]1` [Example 18, N-[(4,6-dimethyl-2-oxo-1,2-dihydropyridin-3-yl)methyl]-2-methyl-5-(1-methyl-1H-pyrazol-4-yl)-3-(1-methyl-1H-pyrazol-5-yl)benzamide], 0.14 µM.
In the case of `Cc1cc(C)c(CNC(=O)c2nc(-c3ccc(N)nc3)nc(-c3ccnn3C)c2C)c(=O)[nH]1` [Example 34, 2-(6-aminopyridin-3-yl)-N-[(4,6-dimethyl-2-oxo-1,2-dihydropyridin-3-yl)methyl]-5-methyl-6-(1-methyl-1H-pyrazol-5-yl)pyrimidine-4-carboxamide], the 50% inhibitory concentration (IC50) amounted to 0.94 µM.
In the case of `Cc1cc(C)c(CNC(=O)c2cccc(-c3c(C#N)cnn3C)c2C)c(=O)[nH]1` [Example 76, 3-(4-cyano-1-methyl-1H-pyrazol-5-yl)-N-[(4,6-dimethyl-2-oxo-1,2-dihydropyridin-3-yl)methyl]-2-methylbenz-amide], the IC50 is 6.94 µM.
To `Cc1cc(C)c(CNC(=O)c2cc(F)cc(-c3c(C)cnn3C)c2C)c(=O)[nH]1` [Example 38, N-[(4,6-dimethyl-2-oxo-1,2-dihydropyridin-3-yl)methyl]-3-(1,4-dimethyl-1H-pyrazol-5-yl)-5-fluoro-2-methylbenz-amide] belongs 0.71 µM; to `Cc1cc(C)c(CNC(=O)c2ncnc(-c3ccnn3C)c2C)c(=O)[nH]1` [Example 124, N-[(4,6-dimethyl-2-oxo-1,2-dihydropyridin-3-yl)methyl]-5-methyl-6-(1-methyl-1H-pyrazol-5-yl)pyrimidine-4-carboxamide], 49.3 µM; to `Cc1cc(C)c(CNC(=O)c2cccc(-n3cnnc3C)c2C)c(=O)[nH]1` [Example 111, N-[(4,6-dimethyl-2-oxo-1,2-dihydropyridin-3-yl)methyl]-2-methyl-3-(3-methyl-4H-1,2,4-triazol-4-yl)benzamide], 24.8 µM.
Consider `Cc1cc(C)c(CNC(=O)c2nc(N3C[C@@H]4C[C@H]3CO4)nc(N3CCC[C@@H]3C)c2C)c(=O)[nH]1` [Example 58, N-[(4,6-dimethyl-2-oxo-1,2-dihydropyridin-3-yl)methyl]-5-methyl-6-[(2S)-2 - methylpyrrolidin-1-yl]-2-[(1S,4S)-2-oxa-5-azabicyclo[2.2.1]hept-5-yl]pyrimidine-4-carboxamide], for which the half-inhibitory concentration (IC50) came to 3.52 µM.
Consider `Cc1cc(C)c(CNC(=O)c2ncnc(N3CCCC3C(F)(F)F)c2C)c(=O)[nH]1` (stereo not shown) [Example 53, N-[(4,6-dimethyl-2-oxo-1,2-dihydropyridin-3-yl)methyl]-5-methyl-6-[2-(trifluoromethyl)pyrrolidin-1-yl]pyrimidine-4-carboxamide], for which the IC50 worked out at 2.52 µM.
The same measure for `CCOc1nc(C(=O)NCc2c(C)cc(C)[nH]c2=O)c(C)c(-c2ccnn2C)n1` [Example 102, N-[(4,6-dimethyl-2-oxo-1,2-dihydropyridin-3-yl)methyl]-2-ethoxy-5-methyl-6-(1-methyl-1H-pyrazol-5-yl)pyrimidine-4-carboxamide]: 18.6 µM.
`Cc1cc(C(F)(F)F)[nH]c(=O)c1CNC(=O)c1cc(Cl)cc(-c2ccnn2C)c1C` [Example 142, 5-chloro-2-methyl-N-{[4-methyl-2-oxo-6-(trifluoromethyl)-1,2-dihydropyridin-3-yl]methyl}-3-(1-methyl-1H-pyrazol-5-yl)benzamide]: the IC50 is greater than 200 µM.
Consider `Cc1cc(C)c(CNC(=O)c2cc(C#N)cc(-c3c(C)cnn3C)c2C)c(=O)[nH]1` [Example 30, 5-cyano-N-[(4,6-dimethyl-2-oxo-1,2-dihydropyridin-3-yl)methyl]-3-(1,4-dimethyl-1H-pyrazol-5-yl)-2-methylbenzamide], for which the IC50 worked out at 0.54 µM.
Regarding `Cc1cc(C)c(CNC(=O)c2ncnc(N3CCC(C)(C)C3)c2C)c(=O)[nH]1` [Example 73, N-[(4,6-dimethyl-2-oxo-1,2-dihydropyridin-3-yl)methyl]-6-(3,3-dimethylpyrroli-din-1-yl)-5-methylpyrimi-dine-4-carboxamide], the IC50 came out at 6.5 µM.
Consider `Cc1cc(C)c(CNC(=O)c2nc(OC(C)C)nc(-c3ccnn3C)c2C)c(=O)[nH]1` [Example 100, N-[(4,6-dimethyl-2-oxo-1,2-dihydropyridin-3-yl)methyl]-2-isopropoxy-5-methyl-6-(1-methyl-1H-pyrazol-5-yl)pyrimidine-4-carboxamide], for which the IC50 was 17.6 µM.
On to `CCC1CCCN1c1ncnc(C(=O)NCc2c(C)cc(C)[nH]c2=O)c1C` (stereo not shown) [Example 95, N-[(4,6-dimethyl-2-oxo-1,2-dihydropyridin-3-yl)methyl]-6-(2-ethylpyrrolidin-1-yl)-5-methylpyrimi-dine-4-carboxamide], for which the IC50 worked out at 16.5 µM.
